The values below come from publication PMC4414177, “A novel orally active water-soluble inhibitor of human glutathione transferase exerts a potent and selective antitumor activity against human melanoma xenografts” (Oncotarget, 2015).

For one experiment, the system named is A375 cells. The experiment in a line: Annexin V / PI staining (flow cytometry). The format is cell-based, human. On the procedure:
A375 and SK23-MEL cells, were fixed with 70% ethanol overnight, stained with PI staining buffer ([…] and 1% Triton X-100) and analyzed by a FACSCalibur (BD Bioscence, San Jose, CA, USA). The percentage of early apoptotic, late apoptotic, and necrotic cells was determined by simultaneous staining of cells with PI (2 μg/ml) and Annexin V-FITC (0.5 μg/ml) (Sigma Aldrich), according to manufacturer's protocol. Flow cytometric data were analyzed by the FlowJo 8.8.6 software (Tree Stare, Inc, Ashland, OR, USA).

A further experiment concerns A375 human melanoma. The experiment in a line: A375 fragment xenograft model, antitumor efficacy. The format is in vivo, mice. The note with it: MC3181 i.v. 8mg/kg/d q1dx5 three weeks. On the procedure:
With regard to the in vivo fragment tumor model, A375 cells were injected (1×10^7) subcutaneously (s.c.) into the right flank of an athymic Nude-Foxn1nu female mouse, and the established primary tumor was then removed and cut into fragments (2–3 mm diameter) and implanted s.c. into recipient mice. Animals were randomly divided in groups of 7 mice and treatment was initiated when a tumor volume of 0.12 ± 0.01 cm^3 (mean ± SEM) was reached.
The reference drug temozolomide, dissolved in DMSO/PBS 1:1 to a final concentration of 10 mg/ml, was administered i.p. q1dx5 at a dose of 100mg/kg/day.
Primary tumor growth was determined for all animals by caliper measurement (minor and major axis length), three times per week, until they were sacrificed. Primary tumor volume was determined using the following equation: V (cm^3)=(α^2×β)/2 (Eq. 3)
The efficacy of the treatment was also analyzed by calculation of the percentage of Increase in Life Span (% ILS), since this analysis gives an evidence of clinical potency. Survival endpoint for each animal was fixed at the day when tumor volume reached 1.0 cm^3 (A375) or 0.4 cm^3 (SK23-MEL and G-361), and data were used to plot the relative Kaplan-Meier curves. Treatment efficacy was then evaluated by comparing the Median Survival Time (MST) of treated group with the MST of control group, and expressed as percentage of ILS: % ILS=[100×(MSTtreated group)/(MSTcontrol group)]−100 (Eq. 4)
Treatment was considered effective when % ILS > 20%.

In the next experiment the target is T1, GSTM2-2 (Homo sapiens, UniProt P28161).
T1 construct: made in house; host or cells: Escherichia coli
T1 sequence (P28161 1-218): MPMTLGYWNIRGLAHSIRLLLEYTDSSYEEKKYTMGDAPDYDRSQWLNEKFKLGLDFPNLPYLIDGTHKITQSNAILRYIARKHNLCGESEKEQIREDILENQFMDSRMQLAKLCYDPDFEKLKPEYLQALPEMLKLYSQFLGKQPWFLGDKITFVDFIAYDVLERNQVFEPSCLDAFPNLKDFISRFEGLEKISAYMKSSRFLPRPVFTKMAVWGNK
Description: Inhibition of GSTM2-2 conjugation activity. Type of experiment: biochemical. The settings on record: GSTM2-2 5 nM. On the procedure: Human GSTM2-2, GSTP1-1, JNK1a2 and TRAF2 were expressed in Escherichia coli and purified as previously described; protein concentration was determined using the Lowry colorimetric assay. Unless specified otherwise, all chemicals were purchased from Sigma-Aldrich S.r.l. (Milan, Italy).
GST activity was determined spectrophotometrically at 340 nm (ε = 9,600 M^−1 cm^−1), as previously reported. Inhibition experiments were performed by measuring GSTP1-1 (20 nM) or GSTM2-2 (5 nM) activities in the presence of various amounts of the selected NBD derivative (from 0.1 to 20 μM with GSTP1-1, and from 0.005 and 1 μM with GSTM2-2). Fifty percent inhibitory concentration (IC50) values were calculated by fitting the data to Equation 1, where ν is the percentage of the saturated binding sites; [P]t is the total GST concentration and [L]t is the total inhibitor concentration, assuming a 1:1 interaction stoichiometry between the inhibitor and one GST subunit, as well as that the binding sites are equal and independent.

The subject of another experiment is SK23-MEL cells. The experiment in a line: Melanin content. The note with it: 7 μM, 48 hrs, p < 0.05. The format is cell-based, human. On the procedure: Cells (1×10^6) were lysed in 1M NaOH at 100°C, for 1 hour and then centrifuged at 15,000 g, for 20 minutes. […] Tyrosinase activity was examined by measuring spectrophotometrically at 475 nm the rate of L-DOPA oxidation to dopachrome over 1 hour at 37°C. Cells [1×10^6 in 40 μl of 20 mM potassium phosphate buffer (pH 6.8) containing 1% Triton X-100 and 1 mM PMSF] were disrupted by freezing and thawing and centrifuged at 15,000 g for 20 minutes at 4°C. The assay was started by addition of 100 μl of 2 mg/ml L-DOPA to 40 μl of supernatant. Tyrosinase activity was expressed as change in absorbance, per hour, per 10^6 cells.

In the case of `O=[N+]([O-])c1ccc(SCCOCCOCCO)c2nonc12` [MC3181, 2-(2-(2-((7-nitrobenzo[c][1,2,5]oxadiazol-4-yl)thio)ethoxy)ethoxy)ethanol], the “percentage of total apoptotic cells” value in the experiment with A375 cells (A375, 24 hrs post-treatment) is “approximately 23%”; with A375 cells (A375, 48 hrs post-treatment), around 37%. Further, the “%ILS” value in the experiment on A375 human melanoma (TMZ i.p. 100 mg/kg/d q1dx5) is listed as 53%. Further, the tumor growth result with A375 human melanoma (TMZ i.p. 100 mg/kg/d q1dx5, from day 13 onward, P < 0.05) is “significantly delayed tumor growth”. Moreover, the midpoint of inhibition on GSTM2-2, the IC50, lay at 0.081 ± 0.013 µM. The melanin content result in the experiment with SK23-MEL cells was “significant increase”.
